Laboratory results: ChEMBL document CHEMBL6134808, “Sertraline and Astemizole Enhance the Deubiquitinase Activity of USP7 by Binding to Its Switching Loop Region” (J Med Chem, 2025)
The source made the active and inactive calls. The calls are words filed in the database; no cut-off is given here.

Tests used:
Homo sapiens = species: Homo sapiens; assay: Binding affinity to MTSL-labeled USP7CD-CTP N1102C mutant (unknown origin) expressed in Escherichia coli BL21(DE3) assessed as complex formation of compound and CTP with switching loop region of USP7 at 200 uM by CPMG spectral analysis; conditions: filed as activator
[1] = molecular target: T1, Ubiquitin carboxyl-terminal hydrolase 7 (Homo sapiens, UniProt Q93009); conditions: filed as activator
Target sequence in this assay (Q93009 whole entry, looked up): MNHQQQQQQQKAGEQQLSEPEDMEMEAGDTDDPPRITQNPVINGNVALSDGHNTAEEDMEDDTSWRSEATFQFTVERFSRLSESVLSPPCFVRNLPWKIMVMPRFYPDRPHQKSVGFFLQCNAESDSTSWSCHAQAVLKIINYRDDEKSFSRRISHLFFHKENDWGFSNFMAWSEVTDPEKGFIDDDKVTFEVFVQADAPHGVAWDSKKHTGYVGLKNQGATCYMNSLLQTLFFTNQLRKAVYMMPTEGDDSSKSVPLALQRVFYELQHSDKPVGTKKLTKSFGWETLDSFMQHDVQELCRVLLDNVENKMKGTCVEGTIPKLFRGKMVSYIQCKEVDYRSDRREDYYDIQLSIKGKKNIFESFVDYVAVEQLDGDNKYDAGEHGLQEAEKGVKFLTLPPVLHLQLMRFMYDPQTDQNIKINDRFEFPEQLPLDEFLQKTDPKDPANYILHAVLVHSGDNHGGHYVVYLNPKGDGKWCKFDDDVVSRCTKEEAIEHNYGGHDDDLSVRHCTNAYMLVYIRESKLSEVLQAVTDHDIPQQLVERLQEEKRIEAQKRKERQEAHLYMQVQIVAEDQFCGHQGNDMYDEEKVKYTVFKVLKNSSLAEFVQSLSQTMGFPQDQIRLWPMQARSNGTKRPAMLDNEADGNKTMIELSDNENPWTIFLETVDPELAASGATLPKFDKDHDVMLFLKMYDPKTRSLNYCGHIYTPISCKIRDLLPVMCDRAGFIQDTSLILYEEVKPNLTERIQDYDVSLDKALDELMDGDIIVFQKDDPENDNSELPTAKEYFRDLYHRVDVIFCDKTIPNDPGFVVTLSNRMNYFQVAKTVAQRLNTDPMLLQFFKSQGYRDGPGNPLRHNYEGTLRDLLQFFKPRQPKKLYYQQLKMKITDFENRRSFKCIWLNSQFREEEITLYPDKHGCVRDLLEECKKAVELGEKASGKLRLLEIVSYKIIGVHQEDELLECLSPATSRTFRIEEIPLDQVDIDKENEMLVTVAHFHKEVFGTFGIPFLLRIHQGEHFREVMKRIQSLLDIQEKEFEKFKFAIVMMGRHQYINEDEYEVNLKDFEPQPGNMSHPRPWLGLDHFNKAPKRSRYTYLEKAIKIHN

[2] = test system: Ubiquitin carboxyl-terminal hydrolase 7 (Homo sapiens), Q93009 [L757P]; conditions: filed as activator, time 15.0 min
[3] = molecular target: T1, Ubiquitin carboxyl-terminal hydrolase 7; assay: Activation of USP7 catalytic domain (208 to 560 residues) (unknown origin) expressed in Escherichia coli BL21(DE3) assessed as upregulation of Kcat of enzyme using Ub-AMC as substrate at 200 uM preincubated for 15 mins followed by Ub-AMC addition and measured for 1 hr by fluorescence based analysis; conditions: filed as activator, time 75.0 min
Target sequence in this assay (Q93009 whole entry, looked up): as above

[4] = molecular target: T1, Ubiquitin carboxyl-terminal hydrolase 7; assay: Activation of USP7 catalytic domain (208 to 560 residues) (unknown origin) expressed in Escherichia coli BL21(DE3) assessed as decrease in thermal stability of protein at 250 uM by SYPRO orange dye based fluorescence analysis; conditions: filed as activator
Target sequence in this assay (Q93009 whole entry, looked up): as above

[5] = molecular target: T1, Ubiquitin carboxyl-terminal hydrolase 7; conditions: filed as activator, time 15.0 min
Target sequence in this assay (Q93009 whole entry, looked up): as above

[6] = test system: Ubiquitin carboxyl-terminal hydrolase 7 (Homo sapiens), Q93009 [I766T]; conditions: filed as activator, time 15.0 min
[7] = test system: Ubiquitin carboxyl-terminal hydrolase 7 (Homo sapiens), Q93009 [D1080N]; conditions: filed as activator, time 15.0 min
[8] = molecular target: T1, Ubiquitin carboxyl-terminal hydrolase 7; assay: Activation of USP7 catalytic domain (208 to 560 residues) (unknown origin) expressed in Escherichia coli BL21(DE3) assessed as Ub-AMC hydrolysis preincubated for 15 mins followed by Ub-AMC addition and measured every 1 min by fluorescence based analysis
Target sequence in this assay (Q93009 whole entry): as the sequence (Q93009 whole entry, looked up) above

Chain of Ubiquitin carboxyl-terminal hydrolase 7 (Homo sapiens), Q93009 [I766T] (Q93009 whole entry I766T): as the sequence (Q93009 whole entry, looked up) above, with I766T counted along it
Chain of Ubiquitin carboxyl-terminal hydrolase 7 (Homo sapiens), Q93009 [L757P] (Q93009 whole entry L757P, the tested form may be a part): as the sequence (Q93009 whole entry, looked up) above, with L757P counted along it
Chain of Ubiquitin carboxyl-terminal hydrolase 7 (Homo sapiens), Q93009 [D1080N] (Q93009 whole entry D1080N, the tested form may be a part): as the sequence (Q93009 whole entry, looked up) above, with D1080N counted along it

SMILES | Activity (Homo sapiens) | EC1.5 [1] [µM] | EC1.5 [2] [µM] | Activity [3] | Activity [4] | EC1.5 [5] [µM] | EC1.5 [6] [µM] | EC1.5 [7] [µM] | EC50 [8] [µM]
CN[C@H]1CC[C@@H](c2ccc(Cl)c(Cl)c2)c2ccccc21 | Active |  |  |  |  |  |  |  | 
COc1ccc(CCN2CCC(Nc3nc4ccccc4n3Cc3ccc(F)cc3)CC2)cc1 [ASTEMIZOLE] | Active | 5.61 | 8.98 | Active | Active | 2.19 | 1.27 | 6.54 | 32.2
